In patent US12310969B2, “Antithrombotic compositions and methods for using same” (UNIVERSITY OF NORTH TEXAS, priority 2021, dated 2025):

Tests used:
[1] = tested on: tfpia mRNA; experiment: qRT-PCR of tfpia gene expression in liver and spleen of adult zebrafish; format: in vivo; conditions: adult fish, 5 μl of 0.6 mM injected intravenously, 6 hours post-injection, vs wild-type control
Method: (§1) UNC6852 (MedChem Express, Monmouth Junction, NJ), in 10% DMSO in saline were prepared at four different concentrations (0.075 mM, 0.15 mM, 0.3 mM and 0.6 mM). Eight nl of each of these solutions was injected into the 5 dpf larvae and incubated for 2 hours. For controls, 10% DMSO in saline was injected. For adult fish injections, 5 μl of 0.6 mM UNC6852 was injected intravenously and incubated for 6 hours.
Adult zebrafish were first anesthetized using 1 mM Tricaine in E3 medium. After 2 minutes, once the zebrafish flips on its side, it was removed from the medium, and an incision was made in the ventral surface from the anal pore up to the gills using a pair of scissors. The visible liver and spleen were retrieved using a pair of forceps. […]
To 1 μl of the liver and spleen RNA (1 μg/μl), 4 μl of QSCRIPT™ (gScript™) cDNA SUPERMIX™ (Quanta Bio, Beverly, MA) and 15 μl of nuclease-free water were added. […] The ΔCt values for WT samples were calculated as a difference between Ct values of β-actin and tfpia. The average ΔCt value for WT was then calculated. […] Similarly, in the knockdown samples, from each ΔCt value, the average ΔCt value of the WT was subtracted, and the resulting ΔΔCt value was calculated, followed by the calculation of fold change.

[2] = tested on: zebrafish larvae; experiment: Laser-induced venous thrombosis, time to occlusion (TTO) of the caudal vein; format: in vivo; conditions: 5 dpf larvae, 2 hours
Method: as §1
For laser-induced venous thrombosis, 5 dpf larvae were transferred into a 1.5 ml Eppendorf tube containing 0.5 ml E3 medium followed by the addition of 10 μl of 10 mM MS222. After 2 minutes of anesthesia, 0.5 ml of 1.6% low melting agarose at 37° C. was added to the Eppendorf tube, and the contents were mixed gently by pipetting up and down using a transfer pipette. […] The slide with the larvae was focused with a 20× objective of the Nikon OPTIPHOT™ fluorescence microscope. The pulsed nitrogen laser with a wavelength of 445 nm, routed through the coumarin-440 dye (Micro Point Laser, Stanford Research Systems Inc., Sunnyvale, CA), was delivered at 10 hits per cycle through the fluorescence port to hit the mid-region in the caudal vein located in the 5th somite posterior to the anal pore.^22 TTO of the vessel was measured as the time taken to occlude the vessel from the time the laser hits the vessel until the vessel completely occludes.

## Cc1ncsc1-c1ccc(CNC(=O)[C@@H]2C[C@@H](O)CN2C(=O)[C@@H](NC(=O)CCCNC(=O)c2ccc(-c3cnc(NCc4ccco4)n4cnnc34)cc2)C(C)(C)C)cc1 [UNC6852]
[1]
  tfpia mRNA levels (fold change of tfpia gene expression in liver and spleen): increased tfpia mRNA levels
[2]; 8 nl injected intravenously at 0.075, 0.15, 0.3 and 0.6 mM, compared to control larvae (10% DMSO in saline)
  time to occlusion (TTO) of the caudal vein after laser injury: dose-dependent prolongation of TTO
[2]; 8 nl injected intravenously, 4 concentrations tested (0.075-0.6 mM)
  concentration giving maximal prolongation of TTO: 0.6 mM
